In ChEMBL document CHEMBL1156922, “Interaction between double helix DNA fragments and the new antitumor agent sabarubicin, Men10755” (Bioorg Med Chem, 2010):

What was measured:
Nucleic Acid [1] = assay: Binding affinity to d(CGTACG)2 assessed as average residence time; assay type: nucleic-acid assay
Nucleic Acid [2] = assay: Binding affinity to d(CGATCG)2 assessed as average residence time; assay type: nucleic-acid assay

Structure (SMILES)	TIME (Nucleic Acid [1]) [h]	TIME (Nucleic Acid [2]) [h]
C[C@@H]1O[C@@H](O[C@@H]2[C@H](C)O[C@@H](O[C@H]3C[C@](O)(C(=O)CO)Cc4c(O)c5c(c(O)c43)C(=O)c3ccccc3C5=O)C[C@@H]2O)C[C@H](N)[C@@H]1O	5.83e-05	0.000131
COc1cccc2c1C(=O)c1c(O)c3c(c(O)c1C2=O)C[C@@](O)(C(=O)CO)C[C@@H]3O[C@H]1C[C@H](N2CCO[C@H](OC)C2)[C@H](O)[C@H](C)O1	0.00139	–
CC(=O)[C@]1(O)Cc2c(O)c3c(c(O)c2[C@@H](O[C@H]2C[C@H](O)[C@H](O[C@H]4C[C@H](N)[C@H](O)[C@H](C)O4)[C@H](C)O2)C1)C(=O)c1ccccc1C3=O	5e-05	5e-05
COc1cccc2c1C(=O)c1c(O)c3c(c(O)c1C2=O)C[C@@](O)(C(=O)CO)C[C@@H]3O[C@H]1C[C@H](N)[C@H](O)[C@H](C)O1	0.000347	0.000231
